Reference: US12077503B2, “Substituted cyclic amides and their use as herbicides” (FMC CORPORATION, priority 2015, dated 2024)

Columns and labels:
Format in all cases: in vivo
[1] = tested on: pigweed (Amaranthus retroflexus); assay: Test A preemergence; conditions: Amaranthus retroflexus, pre-emergence, 240 h, Preemergence
Kochia (Kochia scoparia) [2] = assay: Test A preemergence; conditions: Bassia scoparia, pre-emergence, 240 h, Preemergence
Procedure, shortened: (§1)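 Visual injury scores from 0, no effect, to 100, complete control, were assigned versus untreated controls roughly 10 d after treatment in the greenhouse. Test chemicals, formulated with surfactant in a non-phytotoxic solvent, were applied to planted seeds as a preemergence soil spray or postemergence to one- to two-leaf plants 2 to 10 cm tall, in loam–sand soil.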

[3] = tested on: barnyardgrass (Echinochloa crus-galli); assay: Test A preemergence; conditions: Echinochloa crus-galli, pre-emergence, 240 h, Preemergence
Procedure, shortened: as §1

[4] = tested on: ryegrass, Italian (Italian ryegrass, Lolium multiflorum); assay: Test A preemergence; conditions: Lolium multiflorum, pre-emergence, 240 h, Preemergence
Procedure, shortened: as §1

[5] = tested on: giant foxtail (Setaria faberii); assay: Test A preemergence; conditions: Setaria faberi, pre-emergence, 240 h, Preemergence
Procedure, shortened: as §1

[6] = tested on: ragweed (common ragweed, Ambrosia elatior); assay: Test A preemergence; conditions: Ambrosia artemisiifolia, pre-emergence, 240 h, Preemergence
Procedure, shortened: as §1

corn (Zea mays) = assay: Test A postemergence; conditions: Zea mays, post-emergence, 240 h, Postemergence
Procedure, shortened: as §1

[7] = tested on: blackgrass (Alopecurus myosuroides); assay: Test A postemergence; conditions: Alopecurus myosuroides, post-emergence, 240 h, Postemergence
Procedure, shortened: as §1

[8] = tested on: pigweed (Amaranthus retroflexus); assay: Test A postemergence; conditions: Amaranthus retroflexus, post-emergence, 240 h, Postemergence
Procedure, shortened: as §1

Kochia (Kochia scoparia) [9] = assay: Test A postemergence; conditions: Bassia scoparia, post-emergence, 240 h, Postemergence
Procedure, shortened: as §1

[10] = tested on: barnyardgrass (Echinochloa crus-galli); assay: Test A postemergence; conditions: Echinochloa crus-galli, post-emergence, 240 h, Postemergence
Procedure, shortened: as §1

[11] = tested on: Galium (catchweed bedstraw, Galium aparine); assay: Test A postemergence; conditions: Galium, post-emergence, 240 h, Postemergence
Procedure, shortened: as §1

[12] = tested on: ryegrass, Italian (Italian ryegrass, Lolium multiflorum); assay: Test A postemergence; conditions: Lolium multiflorum, post-emergence, 240 h, Postemergence
Procedure, shortened: as §1

[13] = tested on: giant foxtail (Setaria faberii); assay: Test A postemergence; conditions: Setaria faberi, post-emergence, 240 h, Postemergence
Procedure, shortened: as §1

[14] = tested on: wheat (Triticum aestivum); assay: Test A postemergence; conditions: Triticum aestivum, post-emergence, 240 h, Postemergence
Procedure, shortened: as §1

[15] = tested on: ragweed (common ragweed, Ambrosia elatior); assay: Test A postemergence; conditions: Ambrosia artemisiifolia, post-emergence, 240 h, Postemergence
Procedure, shortened: as §1

[16] = tested on: sedge, umbrella (small-flower umbrella sedge, Cyperus difformis); assay: Test B flooded paddy test; conditions: Cyperus difformis, 360 h, Flood, 250 g ai/ha; visually evaluated after 13 to 15 d; read-out: Plant response rating, Sedge, Umbrella (0 to 100 scale where 0 is no effect and 100 is complete control)
Procedure, shortened: (§2)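 Response scored visually against untreated controls, 0 = no effect and 100 = complete control, 13–15 d after treatment in the greenhouse. Compounds added to paddy water held 3 cm above soil surface. Treatment given at 2-leaf stage.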

[17] = tested on: barnyardgrass (Echinochloa crus-galli); assay: Test B flooded paddy test; conditions: Echinochloa crus-galli, 360 h, Flood, 250 g ai/ha; visually evaluated after 13 to 15 d; read-out: Plant response rating, Barnyardgrass (0 to 100 scale where 0 is no effect and 100 is complete control)
Procedure, shortened: as §2

[18] = tested on: ducksalad (Heteranthera limosa); assay: Test B flooded paddy test; conditions: Heteranthera limosa, 360 h, Flood, 250 g ai/ha; visually evaluated after 13 to 15 d; read-out: Plant response rating, Ducksalad (0 to 100 scale where 0 is no effect and 100 is complete control)
Procedure, shortened: as §2

rice (Oryra sativa) = assay: Test B flooded paddy test; conditions: Oryza sativa, 360 h, Flood, 250 g ai/ha; visually evaluated after 13 to 15 d; read-out: Plant response rating, Rice (0 to 100 scale where 0 is no effect and 100 is complete control)
Procedure, shortened: as §2

## CN1C[C@H](c2ccc(Br)cc2)[C@@H](C(=O)Nc2ccc(F)c(F)c2F)C1=O [Compound 1393]
[1]; 31 g ai/ha, 0 to 100 scale where 0 is no effect and 100 is complete control, read-out: Pigweed plant response rating
  pest or weed control at 31 g/ha: 30%
[1]; 125 g ai/ha, 0 to 100 scale (0 no effect, 100 complete control), read-out: Plant response rating, Pigweed
  pest or weed control at 125 g/ha: 80%
Kochia (Kochia scoparia) [2]; 31 g ai/ha, 0 to 100 scale where 0 is no effect and 100 is complete control, read-out: Kochia plant response rating
  pest or weed control at 31 g/ha: 40%
Kochia (Kochia scoparia) [2]; 125 g ai/ha, 0 to 100 scale (0 no effect, 100 complete control), read-out: Plant response rating, Kochia
  pest or weed control at 125 g/ha: 70%
[3]; 31 g ai/ha, 0 to 100 scale where 0 is no effect and 100 is complete control, read-out: Barnyardgrass plant response rating
  pest or weed control at 31 g/ha: 40%
[3]; 125 g ai/ha, 0 to 100 scale (0 no effect, 100 complete control), read-out: Plant response rating, Barnyardgrass
  pest or weed control at 125 g/ha: 90%
[4]; 31 g ai/ha, 0 to 100 scale where 0 is no effect and 100 is complete control, read-out: Ryegrass, Italian plant response rating
  pest or weed control at 31 g/ha: 0%
[4]; 125 g ai/ha, 0 to 100 scale (0 no effect, 100 complete control), read-out: Plant response rating, Ryegrass, Italian
  pest or weed control at 125 g/ha: 20%
[5]; 31 g ai/ha, 0 to 100 scale where 0 is no effect and 100 is complete control, read-out: Foxtail, Giant plant response rating
  pest or weed control at 31 g/ha: 80%
[5]; 125 g ai/ha, 0 to 100 scale (0 no effect, 100 complete control), read-out: Plant response rating, Foxtail, Giant
  pest or weed control at 125 g/ha: 90%
[6]; 31 g ai/ha, 0 to 100 scale where 0 is no effect and 100 is complete control, read-out: Ragweed plant response rating
  pest or weed control at 31 g/ha: 30%
[6]; 125 g ai/ha, 0 to 100 scale (0 no effect, 100 complete control), read-out: Plant response rating, Ragweed
  pest or weed control at 125 g/ha: 90%
Corn (Zea mays); 31 g ai/ha, 0 is no effect, 100 is complete control, read-out: Corn plant response rating (0 to 100 scale)
  plant injury at 31 g/ha: 0%
Corn (Zea mays); 125 g ai/ha, visual injury after approx. 10 d, 0 to 100 scale, 0 no effect, 100 complete control
  Corn plant response rating (crop injury, 0 = no effect, 100 = complete kill) at 125 g/ha: 80%
[7]; 31 g ai/ha, 0 is no effect, 100 is complete control, read-out: Blackgrass plant response rating (0 to 100 scale)
  pest or weed control at 31 g/ha: 20%
[7]; 125 g ai/ha, visual injury after approx. 10 d, 0 to 100 scale, 0 no effect, 100 complete control, read-out: Plant response rating, Blackgrass
  pest or weed control at 125 g/ha: 30%
[8]; 31 g ai/ha, 0 is no effect, 100 is complete control, read-out: Pigweed plant response rating (0 to 100 scale)
  pest or weed control at 31 g/ha: 40%
[8]; 125 g ai/ha, visual injury after approx. 10 d, 0 to 100 scale, 0 no effect, 100 complete control, read-out: Plant response rating, Pigweed
  pest or weed control at 125 g/ha: 60%
Kochia (Kochia scoparia) [9]; 31 g ai/ha, 0 is no effect, 100 is complete control, read-out: Kochia plant response rating (0 to 100 scale)
  pest or weed control at 31 g/ha: 30%
Kochia (Kochia scoparia) [9]; 125 g ai/ha, visual injury after approx. 10 d, 0 to 100 scale, 0 no effect, 100 complete control, read-out: Plant response rating, Kochia
  pest or weed control at 125 g/ha: 70%
[10]; 31 g ai/ha, 0 is no effect, 100 is complete control, read-out: Barnyardgrass plant response rating (0 to 100 scale)
  pest or weed control at 31 g/ha: 70%
[10]; 125 g ai/ha, visual injury after approx. 10 d, 0 to 100 scale, 0 no effect, 100 complete control, read-out: Plant response rating, Barnyardgrass
  pest or weed control at 125 g/ha: 90%
[11]; 31 g ai/ha, 0 is no effect, 100 is complete control, read-out: Galium plant response rating (0 to 100 scale)
  pest or weed control at 31 g/ha: 50%
[11]; 125 g ai/ha, visual injury after approx. 10 d, 0 to 100 scale, 0 no effect, 100 complete control, read-out: Plant response rating, Galium
  pest or weed control at 125 g/ha: 60%
[12]; 31 g ai/ha, 0 is no effect, 100 is complete control, read-out: Ryegrass, Italian plant response rating (0 to 100 scale)
  pest or weed control at 31 g/ha: 0%
[12]; 125 g ai/ha, visual injury after approx. 10 d, 0 to 100 scale, 0 no effect, 100 complete control, read-out: Plant response rating, Ryegrass, Italian
  pest or weed control at 125 g/ha: 20%
[13]; 31 g ai/ha, 0 is no effect, 100 is complete control, read-out: Foxtail, Giant plant response rating (0 to 100 scale)
  pest or weed control at 31 g/ha: 70%
[13]; 125 g ai/ha, visual injury after approx. 10 d, 0 to 100 scale, 0 no effect, 100 complete control, read-out: Plant response rating, Foxtail, Giant
  pest or weed control at 125 g/ha: 90%
[14]; 31 g ai/ha, 0 is no effect, 100 is complete control, read-out: Wheat plant response rating (0 to 100 scale)
  plant injury at 31 g/ha: 0%
[14]; 125 g ai/ha, visual injury after approx. 10 d, 0 to 100 scale, 0 no effect, 100 complete control, read-out: Plant response rating, Wheat
  plant injury at 125 g/ha: 30%
[15]; 31 g ai/ha, 0 is no effect, 100 is complete control, read-out: Ragweed plant response rating (0 to 100 scale)
  pest or weed control at 31 g/ha: 0%
[15]; 125 g ai/ha, visual injury after approx. 10 d, 0 to 100 scale, 0 no effect, 100 complete control, read-out: Plant response rating, Ragweed
  pest or weed control at 125 g/ha: 50%
[16]
  pest or weed control at 250 g/ha: 0%
[17]
  pest or weed control at 250 g/ha: 85%
[18]
  pest or weed control at 250 g/ha: 100%
Rice (Oryra sativa)
  pest or weed control at 250 g/ha: 55%
